Source: the NIST ThermoML archive (doi:10.1021/je300843n)

Conditions: Liquid, Ebulliometric method (Recirculating still)

C [methane]
Conditions	vapor or sublimation pressure [kPa]
126.01 K	286.85
127.99 K	324.94
130.02 K	367.76
132.01 K	413.65
133.98 K	463.11
135.99 K	517.9
137.97 K	576.38
140.01 K	641.51
